Measured values: US10633389B2, “CARM1 inhibitors and uses thereof” (Epizyme, Inc., priority 2013, dated 2020)

System: asymmetric di-methyl PABP1 in RKO cells
Assay: RKO methylation assay, In Cell Western (ICW) for asymmetric di-methyl PABP1
Assay type: cell-based
Settings: Homo sapiens, RKO, Cellular potencies, ICW PABP1me2a
Summary of the method: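 In-cell Western on fixed RKO cells after 48 h compound exposure: anti-asymmetric di-methyl PABP1 signal at 800 nm over DRAQ5 DNA signal at 700 nm. Percent inhibition set between DMSO wells and wells with 20 μM reference compound; IC50 curves fitted in triplicate.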

| SMILES | IC50 [µM] |
| --- | --- |
| CCOC(=O)N1CCN(c2nc(-c3cccc(OCC(O)CNC)c3)nc(N[C@@H]3CCOC3)c2C)C[C@H]1C (some centres unmarked) [Example 470-1a] | < 5 |
| CNCC(O)COc1cccc(-c2nc(-c3c(C)noc3C)c(C)c(N(C)C3CCN(C(=O)OC)CC3)n2)c1 (centres unmarked) [Example 89-1a] | < 5 |
| CNCC(O)COc1cccc(-c2nc(NC3(CO)CC3)c(C)c(-c3c(C)noc3C)n2)c1 (centres unmarked) [Example 5-3] | 5 to 10 |
| CNCC(O)COc1cccc(-c2nc(N[C@@H]3CCOC3)c(C)c(N3CCN(CC(F)F)CC3)n2)c1 (some centres unmarked) [Example 458-1a] | < 5 |
| CNCC(O)COc1cccc(-c2nc(NC3CCOC(C)(C)C3)c(C)c(-c3c(C)noc3C)n2)c1 (centres unmarked) [Example 290-1a] | < 5 |
| CNCC(O)COc1cccc(-c2nc(N[C@@H]3CCOC3)c(C)c(C3=CC(C)(C)NC(C)(C)C3)n2)c1 (some centres unmarked) [Example 415-1a] | 10 to 20 |
| CNCC(O)COc1cccc(-c2nc(-c3c(C)noc3C)cc(N(C)c3cncnc3)n2)c1 (centres unmarked) [Example 50-1a] | < 5 |
| CCOC(=O)c1sc(-c2cc(N(C)C3CCOCC3)nc(-c3cccc(OCC(O)CNC)c3)n2)nc1C (centres unmarked) [Example 565-1a] | 10 to 20 |
| CNCC(O)COc1cccc(-c2nc(NCC3(N4CCC4)CCOCC3)c(C)c(-c3c(C)noc3C)n2)c1 (centres unmarked) [Example 301-1a] | 5 to 10 |
| CNCC(O)COc1cc(Cl)cc(-c2nc(N[C@@H]3CCOC3)c(C)c(-c3ccncc3)n2)c1 (some centres unmarked) [Example 331-1a] | 5 to 10 |
| CNCC(O)COc1cccc(-c2nc(SC)c(C)c(-c3c(C)noc3C)n2)c1 (centres unmarked) [Example 53-1a] | 10 to 20 |
| CNCC(O)COc1cccc(-c2nc(NC)cc(-c3c(C)noc3C)n2)c1 (centres unmarked) [Example 27-1a] | 10 to 20 |
| CNCC(O)COc1cccc(-c2nc(-c3c(C)noc3C)c(C)c(N(C)CC3CCOCC3)n2)c1 (centres unmarked) [Example 86-1a] | 5 to 10 |
| CNCC(O)COc1cc(Cl)cc(-c2nc(-c3ccncc3C3CC3)cc(N(C)C3CCOCC3)n2)c1 (centres unmarked) [Example 522-1a] | 5 to 10 |
| CNC[C@@H](O)COc1cccc(-c2nc(-c3cn(S(C)(=O)=O)c4ncncc34)cc(N(C)C3CCOCC3)n2)c1 [Example 511-1a] | 5 to 10 |
| CNCC(O)COc1cccc(-c2nc(NC3CCCN(S(C)(=O)=O)C3)c(C)c(-c3c(C)noc3C)n2)c1 (centres unmarked) [Example 198-1a] | < 5 |
| CNCC(O)COc1cccc(-c2nc(C(=O)NC3CCOCC3)c(C)c(C(=O)NC3CCOCC3)n2)c1 (centres unmarked) [Example 677-1a] | ≥ 20 |
| CNCC(O)COc1cccc(-c2nc(NC3CCOCC3)c(C)c(N3CCN(C(C)C)CC3)n2)c1 (centres unmarked) [Example 644-1a] | ≥ 20 |
| CNCC(O)COc1cccc(-c2nc(N[C@@H]3CCN(C(=O)OC(C)(C)C)C[C@@H]3F)c(C)c(-c3c(C)noc3C)n2)c1 (some centres unmarked) [Example 227-1a] | < 5 |
| CNCC(O)COc1cccc(-c2nc(-c3cn(C)c(C)n3)cc(N(C)C3CCOCC3)n2)c1 (centres unmarked) [Example 529-1a] | 5 to 10 |
| CCOC(=O)N1CCC(Nc2nc(-c3cccc(OCC(O)CNC)c3)nc(-c3c(C)noc3C)c2C)CC1 (centres unmarked) [Example 189-1a] | < 5 |
| CNCC(O)COc1cccc(-c2nc(NC3CCOC(C)C3)c(C)c(-c3c(C)noc3C)n2)c1 (centres unmarked) [Example 239-1a] | < 5 |
| CCN(CC)c1nc(-c2cccc(OCC(O)CNC)c2)nc(N2CCOCC2)c1C (centres unmarked) [Example 682-1a] | ≥ 20 |
| CNCC(O)COc1cccc(-c2nc(NC3CCNC[C@H]3F)c(C)c(-c3c(C)noc3C)n2)c1 (some centres unmarked) [Example 207-1a] | < 5 |
| CNCC(O)COc1cccc(-c2nc(NC[C@H]3COCCN3CC(F)F)c(C)c(-c3c(C)noc3C)n2)c1 (some centres unmarked) [Example 274-1a] | < 5 |
| CNCC(O)COc1cccc(-c2nc(N3CCNCC3)c(C)c(N(C)C3CCOCC3)n2)c1 (centres unmarked) [Example 560-1a] | 10 to 20 |
| CNCC(O)COc1cccc(-c2nc(C3CCNCC3)cc(N(C)C3CCOCC3)n2)c1 (centres unmarked) [Example 615-1a] | 10 to 20 |
| CNCC(O)COc1cccc(-c2nc(OCC3CCOCC3)c(C)c(-c3c(C)noc3C)n2)c1 (centres unmarked) [Example 182-1a] | < 5 |

Now from value to molecule:

| IC50 [µM] | SMILES |
| --- | --- |
| < 5 | CNC[C@@H](O)COc1ccc(Cl)c(-c2nc(-c3c(C)noc3C)c(C)c(N3CCC4(CCCO4)C3)n2)c1 (some centres unmarked) [Example 289-3] |
| < 5 | CNC[C@@H](O)COc1ccc(Cl)c(-c2nc(N[C@H]3COC[C@@H]3O)c(C)c(-c3c(C)noc3C)n2)c1 [Example 209-3] |
| < 5 | CCOC(=O)N1CCCCC1CNc1nc(-c2cc(OC[C@@H](O)CNC)ccc2Cl)nc(-c2c(C)noc2C)c1C (some centres unmarked) [Example 27-3] |
| < 5 | CNC[C@@H](O)COc1ccc(Cl)c(-c2nc(-c3c(C)noc3C)c(C)c(N3CC4CC4C3)n2)c1 (some centres unmarked) [Example 235-3] |
| < 5 | CNC[C@@H](O)COc1ccc(Cl)c(-c2nc(N[C@H]3CCN(C)C[C@H]3F)c(C)c(-c3c(C)noc3C)n2)c1 [Example 147-3] |
| < 5 | CCOC(=O)N1CC[C@@H](Nc2nc(-c3cc(OC[C@H](O)CNC)ccc3Cl)nc(-c3c(C)noc3C)c2Cl)C1 [Example 129-3] |
| < 5 | CCS(=O)(=O)N1CCC(Nc2nc(-c3cc(OC[C@@H](O)CNC)ccc3Cl)nc(-c3c(C)noc3C)c2C)CC1 [Example 67-3] |
| < 5 | CNC[C@@H](O)COc1ccc(Cl)c(-c2nc(-c3c(C)noc3C)c(C)c(N3Cc4cn(S(C)(=O)=O)nc4C3)n2)c1 [Example 293-3] |
| < 5 | CCO[C@@H]1CCC[C@H]1Nc1nc(-c2cc(OC[C@H](O)CNC)ccc2Cl)nc(-c2c(C)noc2C)c1C [Example 240-3] |
| < 5 | CNC[C@@H](O)COc1ccc(Cl)c(-c2nc(-c3c(C)noc3C)c(C)c(N3Cc4nc(C)sc4C3)n2)c1 [Example 192-3] |
| < 5 | CNC[C@@H](O)COc1ccc(Cl)c(-c2nc(N[C@H]3CCO[C@H](C)C3)c(Cl)c(-c3c(C)noc3C)n2)c1 [Example 197-3] |
| < 5 | CNCC(O)COc1ccc(Cl)c(-c2nc(NC3CC(C)N(C(=O)OC)C(C)C3)c(C)c(-c3c(C)noc3C)n2)c1 (centres unmarked) [Example 46-3] |
| < 5 | CNC[C@@H](O)COc1ccc(F)c(-c2nc(-c3c(C)noc3C)c(C)c(N3CC4(CCOCC4)C3)n2)c1 [Example 227-3] |
| < 5 | CCOC(=O)N1CCCC[C@@H]1CNc1nc(-c2cc(OC[C@H](O)CNC)ccc2Cl)nc(-c2c(C)noc2C)c1Cl [Example 153-3] |
| < 5 | CNC[C@@H](O)COc1ccc(Cl)c(-c2nc(-c3c(C)noc3C)c(C)c(N3Cc4cc(F)cnc4C3)n2)c1 [Example 157-3] |
| < 5 | CNC[C@@H](O)COc1ccc(Cl)c(-c2nc(N[C@@H]3CCN(C)C[C@@H]3F)c(Cl)c(-c3c(C)noc3C)n2)c1 [Example 210-3] |
| 10 to 20 | CNCC(O)COc1cc(Cl)cc(-c2nc(-c3ccn4cnnc4c3)c(C)c(N(C)C3CCOCC3)n2)c1 (centres unmarked) [Example 70-1] |
| < 5 | CNC[C@@H](O)COc1ccc(Cl)c(-c2nc(N[C@@H]3CCO[C@@H](C)C3)c(C)c(-c3c(C)noc3C)n2)c1 [Example 257-3] |
| 10 to 20 | CNCC(O)COc1cccc(-c2nc(-c3c(C)noc3C)cc(N(CCOC)CCOC)n2)c1 (centres unmarked) [Example 52-1] |
| < 5 | CNC[C@@H](O)COc1ccc(C(F)(F)F)c(-c2nc(NC3CCN(C(=O)OC)CC3)c(C)c(-c3c(C)noc3C)n2)c1 [Example 204-3] |
| < 5 | CNCC(O)COc1cccc(-c2nc(-c3c(C)noc3C)c(C)c(N3Cc4cccnc4C3)n2)c1 (centres unmarked) [Example 35-3] |
| < 5 | CNC[C@@H](O)COc1ccc(Cl)c(-c2nc(-c3c(C)noc3C)c(C)c(N3CCC3C)n2)c1 (some centres unmarked) [Example 207-3] |
